Patent US10106558B2, “Azolobenzazine compounds, compositions comprising these compounds and their use for controlling invertebrate pests” (BASF SE, priority 2015, dated 2018)

Legend:
Type in all cases: in vivo
[1] = system: Silverleaf Whitefly (Bemisia argentifolii) (Adults); assay: Action on silverleaf whitefly adults, sprayed cotton plants; conditions: 72 h, 3 days after treatment, read-out: mortality in comparison with untreated controls
Description: Example B4: Action on Silverleaf Whitefly (Bemisia argentifolii) (Adults)
The active compounds were formulated by a Tecan liquid handler in 100% cyclohexanone as a 10,000 ppm solution supplied in tubes. The 10,000 ppm solution was serially diluted in 100% cyclohexanone to make interim solutions. These served as stock solutions for which final dilutions were made by the Tecan in 50% acetone:50% water (v/v) into 5 or 10 ml glass vials. A nonionic surfactant (Kinetic®) was included in the solution at a volume of 0.01% (v/v). The vials were then inserted into an automated electrostatic sprayer equipped with an atomizing nozzle for application to plants/insects.
Cotton plants at the cotyledon stage (one plant per pot) were sprayed by an automated electrostatic plant sprayer equipped with an atomizing spray nozzle. The plants were dried in the sprayer fume hood and then removed from the sprayer. Each pot was placed into a plastic cup and about 10 to 12 whitefly adults (approximately 3-5 days old) were introduced. The insects were collected using an aspirator and a nontoxic Tygon® tubing connected to a barrier pipette tip. The tip, containing the collected insects, was then gently inserted into the soil containing the treated plant, allowing insects to crawl out of the tip to reach the foliage for feeding. Cups were covered with a reusable screened lid. Test plants were maintained in a growth room at about 25° C. and about 20-40% relative humidity for 3 days, avoiding direct exposure to fluorescent light (24 hour photoperiod) to prevent trapping of heat inside the cup. Mortality was assessed 3 days after treatment, compared to untreated control plants.

[2] = system: Orchid Thrips (Dichromothrips corbetti); assay: Action on orchid thrips, floral-immersion technique; conditions: adult thrips, 72 hours after treatment, read-out: mortality in comparison with untreated controls
Description: Example B2: Action on Orchid Thrips (Dichromothrips Corbetti)
Dichromothrips corbettiadults used for bioassay were obtained from a colony maintained continuously under laboratory conditions. For testing purposes, the test compound is diluted in a 1:1 mixture of acetone:water (vol:vol), plus Kinetic® HV at a rate of 0.01% v/v.
Thrips potency of each compound was evaluated by using a floral-immersion technique. All petals of individual, intact orchid flowers were dipped into treatment solution and allowed to dry in Petri dishes. Treated petals were placed into individual re-sealable plastic along with about 20 adult thrips. All test arenas were held under continuous light and a temperature of about 28° C. for duration of the assay. After 3 days, the numbers of live thrips were counted on each petal. The percent mortality was recorded 72 hours after treatment.

[3] = system: boll weevil (Anthonomus grandis); assay: Action on boll weevil, eggs on insect diet in 96-well microtiter plates; conditions: 120 h, 800 ppm, egg and larval mortality visually assessed after 5 days, read-out: mortality in comparison with untreated controls
Description: Example B3: Action on Boll Weevil (Anthonomus grandis)
For evaluating control of boll weevil (Anthonomus grandis) the test unit consisted of 96-well-microtiter plates containing an insect diet and 5-10 A. grandis eggs.
(§1) The compounds were formulated using a solution containing 75% v/v water and 25% v/v DMSO. Different concentrations of formulated compounds were sprayed onto the insect diet at 5 μl, using a custom built micro atomizer, at two replications.
After application, microtiter plates were incubated at about 25±1° C. and about 75±5% relative humidity for 5 days. Egg and larval mortality was then visually assessed.

[4] = system: Mediterranean fruitfly (Ceratitis capitata); assay: Action on Mediterranean fruitfly, eggs on insect diet in microtiter plates; conditions: 120 h, egg and larval mortality visually assessed after 5 days, read-out: mortality in comparison with untreated controls
Description: Example B5: Action on Mediterranean Fruitfly (Ceratitis capitata)
For evaluating control of Mediterranean fruitfly (Ceratitis capitata) the test unit consisted of microtiter plates containing an insect diet and 50-80 C. capitata eggs.
as §1
After application, microtiter plates were incubated at about […] and about 80+5% relative humidity for 5 days. Egg and larval mortality was then visually assessed.

[5] = system: yellow fever mosquito (Aedes aegypti); assay: whole plant or invertebrate; conditions: 48 h, larval mortality visually assessed after 2 days, read-out: mortality in comparison with untreated controls
Description: Example B1: Action on Yellow Fever Mosquito (Aedes aegypti)
For evaluating control of yellow fever mosquito (Aedes aegypti) the test unit consisted of 96-well-microtiter plates containing 200 μl of tap water per well and 5-15 freshly hatched A. aegypti larvae.
The active compounds were formulated using a solution containing 75% (v/v) water and 25% (v/v) DMSO. Different concentrations of formulated compounds or mixtures were sprayed onto the insect diet at 2.5 μl, using a custom built micro atomizer, at two replications.
After application, microtiter plates were incubated at 28+1° C., 80+5% RH for 2 days. Larval mortality was then visually assessed.

[6] = system: Diamond Back Moth (Plutella xylostella); assay: Action on diamond back moth, dipped cabbage leaves; conditions: 3rd instar larvae, 72 hours after treatment, read-out: mortality in comparison with untreated controls
Description: Example B9: Action on Diamond Back Moth (Plutella xylostella)
The active compound is dissolved at the desired concentration in a mixture of 1:1 (vol:vol) distilled water:acetone. Surfactant (Kinetic® HV) is added at a rate of 0.01% (vol/vol). The test solution is prepared at the day of use.
Leaves of cabbage were dipped in test solution and air-dried. Treated leaves were placed in petri dishes lined with moist filter paper and inoculated with ten 3rd instar larvae. Mortality was recorded 72 hours after treatment. Feeding damages were also recorded using a scale of 0-100%.

[7] = system: Southern Armyworm (Spodoptera eridania), 2nd instar larvae; assay: Action on southern armyworm 2nd instar larvae, sprayed lima bean plants; conditions: 96 h, 4 days after treatment, read-out: mortality in comparison with untreated controls
Description: Example B10: Action on Southern Armyworm (Spodoptera eridania), 2nd Instar Larvae
The active compounds were formulated by a Tecan liquid handler in 100% cyclohexanone as a 10,000 ppm solution supplied in tubes. The 10,000 ppm solution was serially diluted in 100% cyclohexanone to make interim solutions. These served as stock solutions for which final dilutions were made by the Tecan in 50% acetone:50% water (v/v) into 10 or 20 ml glass vials. A nonionic surfactant (Kinetic®) was included in the solution at a volume of 0.01% (v/v). The vials were then inserted into an automated electrostatic sprayer equipped with an atomizing nozzle for application to plants/insects.
Lima bean plants (variety Sieva) were grown 2 plants to a pot and selected for treatment at the 1st true leaf stage. Test solutions were sprayed onto the foliage by an automated electrostatic plant sprayer equipped with an atomizing spray nozzle. The plants were dried in the sprayer fume hood and then removed from the sprayer. Each pot was placed into perforated plastic bags with a zip closure. About 10 to 11 armyworm larvae were placed into the bag and the bags zipped closed. Test plants were maintained in a growth room at about 25° C. and about 20-40% relative humidity for 4 days, avoiding direct exposure to fluorescent light (24 hour photoperiod) to prevent trapping of heat inside the bags. Mortality and reduced feeding were assessed 4 days after treatment, compared to untreated control plants.

[8] = system: tobacco budworm (Heliothis virescens); assay: Action on tobacco budworm, eggs on insect diet in 96-well microtiter plates; conditions: 120 h, egg and larval mortality visually assessed after 5 days, read-out: mortality in comparison with untreated controls
Description: Example B6: Action on Tobacco Budworm (Heliothis virescens)
For evaluating control of tobacco budworm (Heliothis virescens) the test unit consisted of 96-well-microtiter plates containing an insect diet and 15-25 H. virescens eggs.
The compounds were formulated using a solution containing 75% v/v water and 25% v/v DMSO. Different concentrations of formulated compounds were sprayed onto the insect diet at 10 μl, using a custom built micro atomizer, at two replications.
After application, microtiter plates were incubated at about 28±1° C. and about 80±5% relative humidity for 5 days. Egg and larval mortality was then visually assessed.

Cc1cccc(C)c1N1CCCS/C1=N/N=C/c1ccc2c(ccc3c2ncn3-c2ccc(OC(F)(F)F)cc2)n1 [Compound C-23, (E)-3-(2,6-dimethylphenyl)-N-[(E)-[3-[4-(trifluoromethoxy)phenyl]imidazo[4,5-f]quinolin-7-yl]methyleneamino]-1,3-thiazinan-2-imine]
≥ 75%: mortality at 500 ppm [1] | mortality at 500 ppm [2] | mortality at 800 ppm [3] | mortality at 800 ppm [4] | mortality at 800 ppm [5] | mortality at 500 ppm [6] | mortality at 500 ppm [7] | mortality at 800 ppm [8]

CC(C)c1ccccc1NC(=S)N/N=C/c1ccc2c(ccc3c(-c4ccc(OC(F)(F)F)cc4)n(C)nc32)n1 [Compound C-19, 1-(2-isopropylphenyl)-3-[(E)-[2-methyl-3-[4-(trifluoromethoxy)phenyl]pyrazolo[3,4-f]quinolin-7-yl]methyleneamino]thiourea]
≥ 75%: mortality at 500 ppm [1] | mortality at 800 ppm [3] | mortality at 800 ppm [4] | mortality at 800 ppm [5] | mortality at 500 ppm [7] | mortality at 800 ppm [8]

Cc1cccc(C)c1N1C(=O)CS/C1=N\N=C\c1ccc2c(ccc3c2ncn3-c2ccc(OC(F)(F)F)cc2)n1 [Compound C-2, (2Z)-3-(2,6-dimethylphenyl)-2-[(E)-[3-[4-(trifluoromethoxy)phenyl]imidazo[4,5-f]quinolin-7-yl]methylenehydrazono]thiazolidin-4-one]
≥ 75%: mortality at 500 ppm [2] | mortality at 800 ppm [3] | mortality at 800 ppm [4] | mortality at 800 ppm [5] | mortality at 500 ppm [6] | mortality at 500 ppm [7] | mortality at 800 ppm [8]

CC(C)c1ccccc1N1C(=O)CS/C1=N\N=C\c1cnc2c(ccc3c2ncn3-c2ccc(OC(F)(F)F)cc2)c1 [Compound C-17, (2Z)-3-(2-isopropylphenyl)-2-[(E)-[3-[4-(trifluoromethoxy)phenyl]imidazo[4,5-h]quinolin-7-yl]methylenehydrazono]thiazolidin-4-one]
≥ 75%: mortality at 500 ppm [1] | mortality at 500 ppm [2] | mortality at 800 ppm [3] | mortality at 800 ppm [4] | mortality at 800 ppm [5] | mortality at 500 ppm [6] | mortality at 800 ppm [8]

CC(C)c1ccccc1N1C(=O)CS/C1=N\N=C\c1ccc2c(ccc3c(-c4ccc(OC(F)(F)F)cc4)n(C)nc32)n1 [Compound C-20, (2Z)-3-(2-isopropylphenyl)-2-[(E)-[2-methyl-3-[4-(trifluoromethoxy)phenyl]pyrazolo[3,4-f]quinolin-7-yl]methylenehydrazono]thiazolidin-4-one]
≥ 75%: mortality at 500 ppm [1] | mortality at 800 ppm [3] | mortality at 800 ppm [4] | mortality at 800 ppm [5] | mortality at 500 ppm [6] | mortality at 500 ppm [7] | mortality at 800 ppm [8]

Cc1cccc(C)c1N1C(=O)CS/C1=N\N=C\c1cc2ccc3c(ncn3-c3ccc(OC(F)(F)F)cc3)c2cn1 [Compound C-27, (2Z)-3-(2,6-dimethylphenyl)-2-[(E)-[3-[4-(trifluoromethoxy)phenyl]imidazo[4,5-h]isoquinolin-7-yl]methylenehydrazono]thiazolidin-4-one]
≥ 75%: mortality at 500 ppm [2] | mortality at 800 ppm [3] | mortality at 800 ppm [4] | mortality at 800 ppm [5] | mortality at 500 ppm [6] | mortality at 500 ppm [7] | mortality at 800 ppm [8]

Cc1cccc(C)c1/N=C1\SCC(=O)N1/N=C/c1cc2ccc3c(ncn3-c3ccc(OC(F)(F)F)cc3)c2cn1 [Compound C-29, (2Z)-2-(2,6-dimethylphenyl)imino-3-[(E)-[3-[4-(trifluoromethoxy)phenyl]imidazo[4,5-h]isoquinolin-7-yl]methyleneamino]thiazolidin-4-one]
≥ 75%: mortality at 500 ppm [1] | mortality at 800 ppm [3] | mortality at 800 ppm [4] | mortality at 800 ppm [5] | mortality at 500 ppm [6] | mortality at 500 ppm [7] | mortality at 800 ppm [8]

CC(C)c1ccccc1NC(=S)N/N=C/c1ccc2c(ccc3c2ncn3-c2ccc(OC(F)(F)F)cc2)n1 [Compound C-3, 1-(2-isopropylphenyl)-3-[(E)-[3-[4-(trifluoromethoxy)phenyl]imidazo[4,5-f]quinolin-7-yl]methyleneamino]thiourea]
≥ 75%: mortality at 500 ppm [1] | mortality at 800 ppm [3] | mortality at 500 ppm [6] | mortality at 500 ppm [7] | mortality at 800 ppm [8]
